According to patent US7015323B2, “Thiocarbamate inhibitors of alpha-4 integrins” (Genentech, Inc., priority 2003, dated 2006):

Test: Clearance and half life: pharmacokinetics after IV or PO dosing, plasma measured by LC/MS/MS
Assay type: in vivo
Details: rat; for clearance: clearance from plasma levels (LC/MS/MS, WinNonlin), PEG 400 formulation, route for the table values not stated; for half-life: half life from plasma levels (LC/MS/MS, WinNonlin), route not stated
Procedure: Jugular Vein Cannulation—Animals are anesthetized via IP injection using Ketamine/Xylazine/saline solution (@ 0.25 mL/kg). Animals are weighed prior to dosing of anesthetic to determine proper dosage. Sterile instruments and aseptic technique are used throughout surgery. This includes wearing a mask, clean lab coat or scrubs and sterile gloves. The ventral and dorsal neck areas are shaved and prepped with betadine and alcohol. A small skin incision is made over the jugular vein. Using blunt dissection techniques, free the intended vessel from surrounding tissue and thread two sutures under the vein. Tie the cranial suture, nick the vessel, insert the catheter, and use the distal suture to secure the catheter. Dissect a subcutaneous passage between the catheter insertion point and the intrascapular space; make a small exit hole at the nape of the neck. Then, using hemastats, pull the cannula through the passage to the dorsal neck area. Confirm that the catheter is still properly placed, flush with appropriate heparin/saline solution, and knot the distal end of the cannula. Place a suture tie around the knot, coil the cannula under the skin and close the dorsal incision, leaving the “tie” slightly exposed for ease of externalizing the catheter. Close the ventral incision. The animal should be recovered on a circulating heating blanket or equivalent and returned to its room when it's able to right itself.
Compounds are formulated with polyethylene glycol 400 (PEG) at 30% (IV) or 60% (PO).
Intravenous (IV) dosing is accomplished with a bolus injection into a lateral tail vein. Animals are restrained using a rat restrainer to minimize mis-dosings and to reduce animal stress. Individual doses are calculated based on body weights taken the morning of the dose. Oral (PO) dosing is accomplished by oral gavage using a 3½ inch stainless steel animal feeding tube. Animals are restrained by grasping gently with our hands to reduce animal stress. Individual doses are calculated based on body weights taken the morning of the dose.
Blood (approximately 0.2 mL) is collected from an jugular cannula. For occasions when the jugular cannula fails, blood is removed from the remaining lateral tail vein. The whole blood was placed into Microtainer® tubes containing K2EDTA anticoagulant. Samples are inverted several times to ensure proper mixing with anticoagulant and are stored on ice until centrifugation. Samples are centrifuged at 10,000×g for 5 minutes and plasma is transferred to 1.5 mL microcentrifuge tube. […]
All plasma samples are measured by LC/MS/MS. All pharmacokinetic parameters, clearance (CL), half life (t½), area under curve (AUC) and maximum conc (Cmax) are determined using WinNonin (version 3.2).

Row | clearance | half-life | SMILES
1 | 23 mL/min/kg | 61 min | O=C(N[C@@H](Cc1ccc(OC(=S)N2CCOCC2)cc1)C(=O)O)c1ccccc1Cl [compound 1]
2 | 50 mL/min/kg | 6 min | O=C(N[C@@H](Cc1ccc(OC(=O)N2CCOCC2)cc1)C(=O)O)c1ccccc1Cl [referencecarbamate]
